Test results from patent US7713988B2, “4,5-diphenyl-pyrimidinylamino substituted carboxylic acids, method for the production and use thereof as medicaments” (Sanofi-Aventis, priority 2006, dated 2010).

Target: T1, GPCR GPR40 (Homo sapiens, UniProt O14842)
T1 construct: expressed in transfected cells; host or cells: HEK293
Assay: In vitro FLIPR assay with recombinant cells which express the GPCR GPR40 (intracellular Ca2+ change)
Assay type: cell-based
Settings: 100 μM test substance; recombinant HEK293 cells expressing GPR40; relative to control (0%: no test substance; 100%: 10 μM reference agonist linoleic acid)
Experimental: In vitro FLIPR assay with recombinant cells which express the GPCR GPR40 Function-testing assays were carried out by means of the FLIPR technique (“Fluorescence Imaging Plate Reader”, Molecular Devices Corp.). For this purpose, agonist-induced changes in the intracellular concentration of Ca^2+ in recombinant HEK293 cells which expressed the GPCR GPR40 were determined.
For the investigations, cells were seeded in 96-well microtiter plates (60 000 cells/well) and allowed to grow overnight. The medium was removed and the cells were incubated in buffer which contained the fluorescent dye fluo-4. After this loading with dye, the cells were washed, test substance was added, and changes in the intracellular Ca^2+ concentration were measured in the FLIPR instrument. Results have been presented as percentage change relative to the control (0%: no test substance added; 100%:10 μM reference agonist linoleic acid added).

T1 sequence (O14842 whole entry): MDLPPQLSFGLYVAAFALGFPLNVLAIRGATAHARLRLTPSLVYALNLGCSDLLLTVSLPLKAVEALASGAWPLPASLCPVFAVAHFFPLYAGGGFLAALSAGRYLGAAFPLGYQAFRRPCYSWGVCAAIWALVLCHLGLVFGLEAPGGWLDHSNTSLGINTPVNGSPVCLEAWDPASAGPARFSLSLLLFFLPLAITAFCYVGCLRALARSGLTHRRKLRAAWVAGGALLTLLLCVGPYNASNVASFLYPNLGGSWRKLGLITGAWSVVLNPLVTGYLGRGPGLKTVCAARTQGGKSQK

| SMILES | % activation @ 100 μM [%] |
| --- | --- |
| O=C(O)C1CCC(CNc2ncc(-c3ccccc3)c(-c3ccccc3)n2)CC1 (stereo not shown) [Example 1, 4-[(4,5-Diphenylpyrimidin-2-ylamino)methyl]cyclohexanecarboxylic acid] | 79 |
| O=C(O)C(F)(F)F.O=C(O)CCCCCCCNc1ncc(-c2ccccc2)c(-c2ccccc2)n1 [Example 3, 8-(4,5-Diphenylpyrimidin-2-ylamino)octanoic Acid Trifluoroacetate] | 104 |
| O=C(O)C(F)(F)F.O=C(O)CCCCCCNc1ncc(-c2ccccc2)c(-c2ccccc2)n1 [Example 4, 7-(4,5-Diphenylpyrimidin-2-ylamino)heptanoic Acid Trifluoroacetate] | 94 |
| O=C(O)C(F)(F)F.O=C(O)CCCCCNc1ncc(-c2ccccc2)c(-c2ccccc2)n1 [Example 5, 6-(4,5-Diphenylpyrimidin-2-ylamino)hexanoic acid trifluoroacetate] | 73 |
